Measurements from patent publication US7674795B2, “Fluorene derivatives, composition containing said derivatives and the use thereof” (Aventis Pharma SA, priority 2005, dated 2010).

Experiments:
[1] = target: Hsp82 (Saccharomyces cerevisiae, UniProt P02829); test: PK/LDH enzyme coupling test of the ATPase activity of Hsp82 (NADH decrease at 340 nm); assay type: biochemical; conditions: 1 μM Hsp82, 250 μM ATP, 37° C., pyruvate kinase/lactate dehydrogenase coupling, read-out: Hsp82 ATPase IC50
Procedure, shortened: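 Yeast Hsp82 ATPase was coupled to PK/LDH, with ADP formation followed continuously as NADH loss at 340 nm at 37 °C. The mixture was preincubated 30 min at 37 °C, and the reaction was started with compound at variable concentrations plus Hsp82 at 1 μM. Initial rates (μM ADP/min) came from the tangent slope at origin, expressed as % inhibition.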

Chain of Hsp82 (P02829 whole entry): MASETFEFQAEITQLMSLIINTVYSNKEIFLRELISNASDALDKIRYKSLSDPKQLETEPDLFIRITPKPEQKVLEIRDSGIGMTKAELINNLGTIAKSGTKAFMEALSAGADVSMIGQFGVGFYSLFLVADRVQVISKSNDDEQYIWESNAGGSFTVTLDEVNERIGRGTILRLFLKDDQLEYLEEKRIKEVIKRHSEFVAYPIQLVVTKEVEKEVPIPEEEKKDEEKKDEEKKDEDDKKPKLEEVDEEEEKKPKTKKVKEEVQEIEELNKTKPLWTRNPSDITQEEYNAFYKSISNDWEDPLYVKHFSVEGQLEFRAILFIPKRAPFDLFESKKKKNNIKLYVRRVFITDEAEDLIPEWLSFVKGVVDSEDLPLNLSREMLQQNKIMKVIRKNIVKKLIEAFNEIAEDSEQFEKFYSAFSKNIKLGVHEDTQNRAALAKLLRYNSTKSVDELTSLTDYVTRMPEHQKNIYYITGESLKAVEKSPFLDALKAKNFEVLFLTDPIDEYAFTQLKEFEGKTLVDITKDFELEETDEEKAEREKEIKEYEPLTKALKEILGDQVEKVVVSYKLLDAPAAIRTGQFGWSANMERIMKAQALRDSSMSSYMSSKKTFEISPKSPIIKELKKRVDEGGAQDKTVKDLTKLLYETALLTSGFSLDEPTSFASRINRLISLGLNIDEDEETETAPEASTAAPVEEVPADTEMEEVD

IC50 [1] [nM] | melting point | SMILES
1000 to 10000 | 204 °C (dec.) | Cn1cc(C(=O)NC2c3ccccc3-c3c(-c4nc5ccncc5[nH]4)cccc32)c2cccnc21 (racemic) [Example 101, [4-(3H-imidazo[4,5-c]pyridin-2-yl)-9H-fluoren-9(R,S)-yl]amide of 1-methyl-1H-pyrrolo[2,3-b]pyridine-3-carboxylic acid]
 | 194 °C | COc1ccc(C(=O)NC2c3ccccc3-c3c(-c4nc5ccncc5[nH]4)cccc32)cc1 (racemic) [Example 127, N-[4-(3H-imidazo[4,5-c]pyridin-2-yl)-9H-fluoren-9(R,S)-yl]-4-methoxybenzamide]
< 1000 | 230 to 235 °C | O=C(NC1c2ccccc2-c2c(-c3nc4ccncc4[nH]3)cccc21)c1cccc2[nH]ncc12 (racemic) [Example 111, [4-(3H-imidazo[4,5-c]pyridin-2-yl)-9H-fluoren-9(R,S)-yl]amide of 1H-indazole-4-carboxylic acid]
1000 to 10000 | 250 °C | Cc1cc(C(=O)NC2c3ccccc3-c3c(-c4nc5ccncc5[nH]4)cccc32)cc(Cl)n1 (racemic) [Example 123, 2-chloro-N-[4-(3H-imidazo[4,5-c]pyridin-2-yl)-9H-fluoren-9(R,S)-yl]-6-methyl-isonicotinamide]
< 1000 | 225 °C (dec.) | O=C(NC1c2ccccc2-c2c(-c3nc4ccncc4[nH]3)cccc21)c1c[nH]c2ncccc12 (racemic) [Example 99, [4-(3H-imidazo[4,5-c]pyridin-2-yl)-9H-fluoren(R,S)-9-yl]amide of 1H-pyrrolo[2,3-b]pyridine-3-carboxylic acid]
< 1000 |  | O=C(OC1c2ccccc2-c2c(-c3nc4ccncc4[nH]3)cccc21)c1ccncc1 (racemic) [Example 122, 4-(3H-imidazo[4,5-c]pyridin-2-yl)-9H-fluoren-9(R,S)-yl ester of isonicotinic acid]

Further lines, the compound ahead of its results:

SMILES | IC50 [1] [nM] | melting point
O=C(NC1c2ccccc2-c2c(-c3nc4cnccc4[nH]3)cccc21)c1cccc2ncccc12 (racemic) [Example 14, [4-(3H-imidazo[4,5-c]pyridin-2-yl)-9H-fluoren-9(R,S)-yl]amide of quinoline-5-carboxylic acid] | < 1000 | 254 to 258 °C (dec.)
O=C1c2ccccc2-c2c1cccc2-c1nc2cnccc2[nH]1 [Example 1, 4-(3H-imidazo[4,5-c]pyridin-2-yl)-fluoren-9-one] | 1000 to 10000 | 236 to 238 °C
NC1c2ccccc2-c2c(-c3nc4ccc(F)cc4[nH]3)cccc21 (racemic) [Example 71, 4-(6-fluoro-1H-benzimidazol-2-yl)-9H-fluoren-9(R,S)-ylamine] | 10000 to 100000 | 170 to 172 °C
CCOC(=O)NC1c2ccccc2-c2c(-c3nc4cnccc4[nH]3)cccc21 (racemic) [Example 20, ethyl ester of [4-(3H-imidazo[4,5-c]pyridin-2-yl)-9H-fluoren-9(R,S)-yl]-carbamoic acid] | 1000 to 10000 | 
CC(C)(C)OC(=O)N[C@H](CC(N)=O)C(=O)NC1c2ccccc2-c2c(-c3nc4cnccc4[nH]3)cccc21 (stereo partly drawn) [Example 61, tert-butyl ester of {(R)-2-carbamoyl-1-[4-(3H-imidazo[4,5-c]pyridin-2-yl)-9H-fluoren-9(R,S)-ylcarbamoyl]-ethyl}-carbamoic acid] | 1000 to 10000 | 
